Measured values reported in PubChem BioAssay (NCI).
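Growth conditions: 96-well plates. Treatment: test compound, 48 hours, 5 concentrations. Analysis: linear interpolation between bracketing concentrations; unreached endpoints set to highest concentration. GI50 marks 50% less growth. TGI: total growth inhibition.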

Columns and labels:
Experiment in all cases: growth of human tumour cells (NCI), 48 h
786-0 renal = test system: 786-0 renal
A498 renal = test system: A498 renal
A549 NSCLC = test system: A549 NSCLC
ACHN renal = test system: ACHN renal
BT-549 breast = test system: BT-549 breast
CAKI-1 renal = test system: CAKI-1 renal
CCRF-CEM leukemia = test system: CCRF-CEM leukemia
COLO 205 colon = test system: COLO 205 colon
DU-145 prostate = test system: DU-145 prostate
EKVX NSCLC = test system: EKVX NSCLC
HCC-2998 colon = test system: HCC-2998 colon
HCT-116 colon = test system: HCT-116 colon
HCT-15 colon = test system: HCT-15 colon
HL-60(TB) leukemia = test system: HL-60(TB) leukemia
HOP-62 NSCLC = test system: HOP-62 NSCLC
HOP-92 NSCLC = test system: HOP-92 NSCLC
HS 578T breast = test system: HS 578T breast
HT29 colon = test system: HT29 colon
IGROV1 ovarian = test system: IGROV1 ovarian
K-562 leukemia = test system: K-562 leukemia
KM12 colon = test system: KM12 colon
LOX IMVI melanoma = test system: LOX IMVI melanoma
M14 melanoma = test system: M14 melanoma
MALME-3M melanoma = test system: MALME-3M melanoma
MCF7 breast = test system: MCF7 breast
MDA-MB-231 breast = test system: MDA-MB-231 breast
MDA-MB-435 = test system: MDA-MB-435
MDA-MB-468 breast = test system: MDA-MB-468 breast
MOLT-4 leukemia = test system: MOLT-4 leukemia
NCI-H226 lung = test system: NCI-H226 lung
NCI-H23 lung = test system: NCI-H23 lung
NCI-H460 lung = test system: NCI-H460 lung
NCI-H522 lung = test system: NCI-H522 lung
NCI/ADR-RES ovarian = test system: NCI/ADR-RES ovarian
OVCAR-3 ovarian = test system: OVCAR-3 ovarian
OVCAR-4 ovarian = test system: OVCAR-4 ovarian
OVCAR-5 ovarian = test system: OVCAR-5 ovarian
OVCAR-8 ovarian = test system: OVCAR-8 ovarian
PC-3 prostate = test system: PC-3 prostate
RPMI-8226 leukemia = test system: RPMI-8226 leukemia
RXF 393 renal = test system: RXF 393 renal
SF-268 CNS = test system: SF-268 CNS
SF-295 CNS = test system: SF-295 CNS
SF-539 CNS = test system: SF-539 CNS
SK-MEL-2 melanoma = test system: SK-MEL-2 melanoma
SK-MEL-28 melanoma = test system: SK-MEL-28 melanoma
SK-MEL-5 melanoma = test system: SK-MEL-5 melanoma
SK-OV-3 ovarian = test system: SK-OV-3 ovarian
SN12C renal = test system: SN12C renal
SNB-19 CNS = test system: SNB-19 CNS
SNB-75 CNS = test system: SNB-75 CNS
SR leukemia = test system: SR leukemia
SW-620 colon = test system: SW-620 colon
T-47D breast = test system: T-47D breast
TK-10 renal = test system: TK-10 renal
U251 CNS = test system: U251 CNS
UACC-257 melanoma = test system: UACC-257 melanoma
UACC-62 melanoma = test system: UACC-62 melanoma
UO-31 renal = test system: UO-31 renal

With `COc1c2c(cc3c1C(CCc1ccccc1)N(C)CC3)OCO2` (stereo not drawn) as the compound, how does the GI50 (786-0 renal) read?
The GI50 was 18.7 µM.

And the TGI (786-0 renal)?
The TGI was over 100 µM.

What about the GI50 (A498 renal) of the same compound?
Its GI50 is 12.1 µM.

What about the TGI (A498 renal) of the same compound?
Its TGI is 48.3 µM.

What about the GI50 (A549 NSCLC) of the same compound?
Its GI50 is 31.5 µM.

And the TGI (A549 NSCLC)?
Its TGI is over 100 µM.

What about the GI50 (ACHN renal) of the same compound?
The GI50 was 13.5 µM.

What about the TGI (ACHN renal) of the same compound?
The TGI was over 100 µM.

What about the GI50 (BT-549 breast) of the same compound?
The GI50 was 14.3 µM.

And the TGI (BT-549 breast)?
Its TGI is 35.5 µM.

And the GI50 (CAKI-1 renal)?
The GI50 was 10.5 µM.

What about the TGI (CAKI-1 renal) of the same compound?
The TGI was over 100 µM.

And the GI50 (CCRF-CEM leukemia)?
Its GI50 is 19.2 µM.

What about the TGI (CCRF-CEM leukemia) of the same compound?
Its TGI is over 100 µM.

What about the GI50 (COLO 205 colon) of the same compound?
The GI50 was 10.4 µM.

And the TGI (COLO 205 colon)?
The TGI was 36.5 µM.

What about the GI50 (DU-145 prostate) of the same compound?
The GI50 was 36 µM.

What about the TGI (DU-145 prostate) of the same compound?
The TGI was over 100 µM.

What about the GI50 (EKVX NSCLC) of the same compound?
The GI50 was 30.5 µM.

What about the TGI (EKVX NSCLC) of the same compound?
Its TGI is over 100 µM.

What about the GI50 (HCC-2998 colon) of the same compound?
The GI50 was 18.1 µM.

And the TGI (HCC-2998 colon)?
The TGI was 61.1 µM.

And the GI50 (HCT-116 colon)?
Its GI50 is 4.32 µM.

And the TGI (HCT-116 colon)?
Its TGI is over 100 µM.

And the GI50 (HCT-15 colon)?
The GI50 was 22.5 µM.

And the TGI (HCT-15 colon)?
Its TGI is over 100 µM.

What about the GI50 (HL-60(TB) leukemia) of the same compound?
Its GI50 is 4.8 µM.

What about the TGI (HL-60(TB) leukemia) of the same compound?
The TGI was 26.4 µM.

And the GI50 (HOP-62 NSCLC)?
The GI50 was 8.32 µM.

What about the TGI (HOP-62 NSCLC) of the same compound?
The TGI was over 100 µM.

What about the GI50 (HOP-92 NSCLC) of the same compound?
The GI50 was 5.53 µM.

And the TGI (HOP-92 NSCLC)?
Its TGI is 56.1 µM.

And the GI50 (HS 578T breast)?
Its GI50 is 14.2 µM.

What about the TGI (HS 578T breast) of the same compound?
Its TGI is 67 µM.

What about the GI50 (HT29 colon) of the same compound?
Its GI50 is 5.9 µM.

And the TGI (HT29 colon)?
The TGI was 65.3 µM.

And the GI50 (IGROV1 ovarian)?
The GI50 was 10 µM.

What about the TGI (IGROV1 ovarian) of the same compound?
Its TGI is 62.6 µM.

And the GI50 (K-562 leukemia)?
Its GI50 is 17.8 µM.

What about the TGI (K-562 leukemia) of the same compound?
Its TGI is over 100 µM.

What about the GI50 (KM12 colon) of the same compound?
Its GI50 is 21.4 µM.

What about the TGI (KM12 colon) of the same compound?
The TGI was 70 µM.

What about the GI50 (LOX IMVI melanoma) of the same compound?
The GI50 was 5.31 µM.

What about the TGI (LOX IMVI melanoma) of the same compound?
The TGI was 19.4 µM.

What about the GI50 (M14 melanoma) of the same compound?
Its GI50 is 7.57 µM.

What about the TGI (M14 melanoma) of the same compound?
Its TGI is 36.5 µM.

And the GI50 (MALME-3M melanoma)?
Its GI50 is 13 µM.

And the TGI (MALME-3M melanoma)?
The TGI was 27.3 µM.

And the GI50 (MCF7 breast)?
Its GI50 is 14.6 µM.

What about the TGI (MCF7 breast) of the same compound?
Its TGI is 43.1 µM.

And the GI50 (MDA-MB-231 breast)?
The GI50 was 10 µM.

What about the TGI (MDA-MB-231 breast) of the same compound?
Its TGI is 40.7 µM.

What about the GI50 (MDA-MB-435) of the same compound?
The GI50 was 6.25 µM.

What about the TGI (MDA-MB-435) of the same compound?
The TGI was 36.5 µM.

And the GI50 (MDA-MB-468 breast)?
The GI50 was 11.7 µM.

What about the TGI (MDA-MB-468 breast) of the same compound?
Its TGI is 27.4 µM.

What about the GI50 (MOLT-4 leukemia) of the same compound?
The GI50 was 15.8 µM.

What about the TGI (MOLT-4 leukemia) of the same compound?
The TGI was 65.1 µM.

What about the GI50 (NCI-H226 lung) of the same compound?
Its GI50 is 13.8 µM.

What about the TGI (NCI-H226 lung) of the same compound?
Its TGI is over 100 µM.

What about the GI50 (NCI-H23 lung) of the same compound?
Its GI50 is 16.2 µM.

And the TGI (NCI-H23 lung)?
Its TGI is over 100 µM.

What about the GI50 (NCI-H460 lung) of the same compound?
The GI50 was 7.61 µM.

What about the TGI (NCI-H460 lung) of the same compound?
Its TGI is 54.3 µM.

And the GI50 (NCI-H522 lung)?
The GI50 was 18.4 µM.

What about the TGI (NCI-H522 lung) of the same compound?
The TGI was 65.4 µM.

What about the GI50 (NCI/ADR-RES ovarian) of the same compound?
The GI50 was 15.6 µM.

What about the TGI (NCI/ADR-RES ovarian) of the same compound?
The TGI was 81.1 µM.

What about the GI50 (OVCAR-3 ovarian) of the same compound?
The GI50 was 13.8 µM.

And the TGI (OVCAR-3 ovarian)?
The TGI was 77.3 µM.

And the GI50 (OVCAR-4 ovarian)?
Its GI50 is 26.4 µM.

What about the TGI (OVCAR-4 ovarian) of the same compound?
Its TGI is over 100 µM.

What about the GI50 (OVCAR-5 ovarian) of the same compound?
Its GI50 is 9.57 µM.

And the TGI (OVCAR-5 ovarian)?
Its TGI is over 100 µM.

And the GI50 (OVCAR-8 ovarian)?
Its GI50 is 31.3 µM.

And the TGI (OVCAR-8 ovarian)?
Its TGI is over 100 µM.

What about the GI50 (PC-3 prostate) of the same compound?
The GI50 was 11.3 µM.

What about the TGI (PC-3 prostate) of the same compound?
The TGI was over 100 µM.

And the GI50 (RPMI-8226 leukemia)?
Its GI50 is 6.07 µM.

And the TGI (RPMI-8226 leukemia)?
The TGI was 38.2 µM.

And the GI50 (RXF 393 renal)?
Its GI50 is 11.8 µM.

What about the TGI (RXF 393 renal) of the same compound?
The TGI was 55 µM.

And the GI50 (SF-268 CNS)?
Its GI50 is 17.3 µM.

And the TGI (SF-268 CNS)?
Its TGI is over 100 µM.

What about the GI50 (SF-295 CNS) of the same compound?
The GI50 was 4.34 µM.

What about the TGI (SF-295 CNS) of the same compound?
The TGI was 28.9 µM.

And the GI50 (SF-539 CNS)?
The GI50 was 10.7 µM.

What about the TGI (SF-539 CNS) of the same compound?
The TGI was 35.5 µM.

What about the GI50 (SK-MEL-2 melanoma) of the same compound?
Its GI50 is 24.6 µM.

What about the TGI (SK-MEL-2 melanoma) of the same compound?
Its TGI is 98.3 µM.

What about the GI50 (SK-MEL-28 melanoma) of the same compound?
Its GI50 is 15.8 µM.

What about the TGI (SK-MEL-28 melanoma) of the same compound?
The TGI was 59.3 µM.

What about the GI50 (SK-MEL-5 melanoma) of the same compound?
Its GI50 is 13.8 µM.

What about the TGI (SK-MEL-5 melanoma) of the same compound?
Its TGI is 26.8 µM.

And the GI50 (SK-OV-3 ovarian)?
Its GI50 is 27.4 µM.

And the TGI (SK-OV-3 ovarian)?
Its TGI is over 100 µM.

And the GI50 (SN12C renal)?
The GI50 was 10.2 µM.

And the TGI (SN12C renal)?
The TGI was over 100 µM.

And the GI50 (SNB-19 CNS)?
The GI50 was 21.7 µM.

What about the TGI (SNB-19 CNS) of the same compound?
Its TGI is over 100 µM.

And the GI50 (SNB-75 CNS)?
Its GI50 is 11.6 µM.

And the TGI (SNB-75 CNS)?
The TGI was 54 µM.

What about the GI50 (SR leukemia) of the same compound?
Its GI50 is 10.6 µM.

What about the TGI (SR leukemia) of the same compound?
Its TGI is 53.3 µM.

And the GI50 (SW-620 colon)?
The GI50 was 10.3 µM.

And the TGI (SW-620 colon)?
Its TGI is 59.6 µM.

What about the GI50 (T-47D breast) of the same compound?
Its GI50 is 11.3 µM.

And the TGI (T-47D breast)?
Its TGI is 49.2 µM.

And the GI50 (TK-10 renal)?
Its GI50 is 47.2 µM.

And the TGI (TK-10 renal)?
Its TGI is over 100 µM.

And the GI50 (U251 CNS)?
The GI50 was 24.5 µM.

And the TGI (U251 CNS)?
The TGI was over 100 µM.

And the GI50 (UACC-257 melanoma)?
The GI50 was 29.3 µM.

What about the TGI (UACC-257 melanoma) of the same compound?
Its TGI is over 100 µM.

What about the GI50 (UACC-62 melanoma) of the same compound?
The GI50 was 12 µM.

And the TGI (UACC-62 melanoma)?
The TGI was 43.9 µM.

And the GI50 (UO-31 renal)?
The GI50 was 8.35 µM.

What about the TGI (UO-31 renal) of the same compound?
Its TGI is over 100 µM.
